These results are taken from ChEMBL document CHEMBL1128790, “Putative atypical antipsychotics with mixed dopaminergic (D1, D2) and serotonergic (5HT2) activity: The design evolution of ZD3638” (1995).

Structures are written as SMILES. The source made the active and inactive calls. The calls are words filed in the database; no cut-off is given here. Where only a bound is given, the exact number is not on record here.

Assay [1] addresses D(2) dopamine receptor (Homo sapiens) (UniProt P14416). Put plainly: Dopamine D2 (spiroperidol) receptor binding affinity.
A short description of assay [2]: (§1) Compound was tested for functional dopamine antagonism in normalization assay (i.e. AS: reversal of apomorphine induced swimming ED50s in mg/kg orally). The note with it: po.
The target in assay [3] is Serotonin 2 (5-HT2) receptor (Homo sapiens) (UniProt P41595+P28223+P28335).
Description: 5-hydroxytryptamine 2 receptor binding affinity
Assay [4] deals with D(1A) dopamine receptor (Homo sapiens) (UniProt P21728).
Description: Dopamine D1 (SCH-23390) receptor binding affinity
The target of assay [5] is D(2) dopamine receptor (Homo sapiens) (UniProt P14416). The experiment in a line: Compound was tested for dopamine D2 (spiroperidol) receptor binding affinity, at 5000 nM concentration.
Assay [6] shares this target. Put plainly: Compound was tested for dopamine D2 (spiroperidol) receptor binding affinity at 2500 nM concentration.
The target of assay [7] is D(1A) dopamine receptor (Homo sapiens) (UniProt P21728). The experiment in a line: Compound was tested for dopamine D1 (SCH-23390) receptor binding affinity, at 2500 nM concentration.
Assay [8] has the same target. Put plainly: Compound was tested for dopamine D1 (SCH-23390) receptor binding affinity, at 1000 nM concentration.
Assay [9] has as its target D(2) dopamine receptor (Homo sapiens) (UniProt P14416). The experiment in a line: Compound was tested for dopamine D2 (spiroperidol) receptor binding affinity; Not active.
For assay [10], the target named is D(1A) dopamine receptor (Homo sapiens) (UniProt P21728). The experiment in a line: Compound was tested for dopamine D1 (SCH-23390) receptor binding affinity; Not active.
The subject of a further assay is Rattus norvegicus. The description is as §1. To be noted: po.

Chain of D(2) dopamine receptor (Homo sapiens) (P14416 whole entry): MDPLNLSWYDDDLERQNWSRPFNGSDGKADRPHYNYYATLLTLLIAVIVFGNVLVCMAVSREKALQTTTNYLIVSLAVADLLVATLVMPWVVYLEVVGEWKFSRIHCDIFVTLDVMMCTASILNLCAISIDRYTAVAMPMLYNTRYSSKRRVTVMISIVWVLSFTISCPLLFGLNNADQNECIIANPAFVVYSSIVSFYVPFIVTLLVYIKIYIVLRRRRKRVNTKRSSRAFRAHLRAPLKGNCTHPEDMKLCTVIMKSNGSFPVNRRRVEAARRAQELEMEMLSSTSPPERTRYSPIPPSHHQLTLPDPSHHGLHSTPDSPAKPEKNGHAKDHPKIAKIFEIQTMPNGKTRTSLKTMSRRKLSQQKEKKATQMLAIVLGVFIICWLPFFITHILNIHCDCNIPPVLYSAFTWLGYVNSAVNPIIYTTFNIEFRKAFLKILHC
Chain of D(1A) dopamine receptor (Homo sapiens) (P21728 whole entry): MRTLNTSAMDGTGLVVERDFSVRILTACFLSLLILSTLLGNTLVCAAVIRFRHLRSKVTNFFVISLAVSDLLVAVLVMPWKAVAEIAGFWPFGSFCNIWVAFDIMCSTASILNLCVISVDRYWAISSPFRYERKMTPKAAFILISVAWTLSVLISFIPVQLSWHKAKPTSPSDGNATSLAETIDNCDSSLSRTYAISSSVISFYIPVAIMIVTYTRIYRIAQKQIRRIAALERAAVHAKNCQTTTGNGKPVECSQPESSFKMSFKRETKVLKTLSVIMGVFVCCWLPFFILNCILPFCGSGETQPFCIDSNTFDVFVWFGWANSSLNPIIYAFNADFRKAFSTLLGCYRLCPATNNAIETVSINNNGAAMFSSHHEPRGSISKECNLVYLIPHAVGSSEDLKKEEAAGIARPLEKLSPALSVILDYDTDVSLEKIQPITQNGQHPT
Chain of Serotonin 2 (5-HT2) receptor (Homo sapiens) (P28223 whole entry, looked up): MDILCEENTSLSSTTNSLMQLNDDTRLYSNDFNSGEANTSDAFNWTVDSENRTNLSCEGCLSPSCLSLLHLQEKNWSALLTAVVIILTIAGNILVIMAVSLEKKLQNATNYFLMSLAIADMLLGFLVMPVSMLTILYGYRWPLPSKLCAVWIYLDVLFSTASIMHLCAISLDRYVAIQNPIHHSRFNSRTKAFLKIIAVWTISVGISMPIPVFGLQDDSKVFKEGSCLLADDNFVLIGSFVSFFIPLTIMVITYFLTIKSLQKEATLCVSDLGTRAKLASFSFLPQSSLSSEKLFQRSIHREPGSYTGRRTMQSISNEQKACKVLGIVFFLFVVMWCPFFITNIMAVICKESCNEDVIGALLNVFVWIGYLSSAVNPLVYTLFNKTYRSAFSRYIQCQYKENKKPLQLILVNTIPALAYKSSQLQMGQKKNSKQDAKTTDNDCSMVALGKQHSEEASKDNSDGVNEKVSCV
Chain of Serotonin 2 (5-HT2) receptor (Homo sapiens) (P28335 whole entry, looked up): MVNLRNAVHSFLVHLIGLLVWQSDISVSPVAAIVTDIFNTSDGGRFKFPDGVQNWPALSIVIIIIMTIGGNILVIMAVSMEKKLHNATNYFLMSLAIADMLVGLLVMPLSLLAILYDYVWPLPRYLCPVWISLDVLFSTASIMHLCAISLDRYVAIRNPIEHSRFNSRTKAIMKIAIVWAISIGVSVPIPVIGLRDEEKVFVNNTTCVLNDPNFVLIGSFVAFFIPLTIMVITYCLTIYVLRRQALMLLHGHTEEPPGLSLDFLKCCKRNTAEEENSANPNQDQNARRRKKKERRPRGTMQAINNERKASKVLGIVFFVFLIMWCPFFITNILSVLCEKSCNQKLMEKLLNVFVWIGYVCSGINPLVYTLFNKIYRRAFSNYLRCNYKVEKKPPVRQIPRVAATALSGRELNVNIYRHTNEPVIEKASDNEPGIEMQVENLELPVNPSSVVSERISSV
Chain of Serotonin 2 (5-HT2) receptor (Homo sapiens) (P41595 whole entry, looked up): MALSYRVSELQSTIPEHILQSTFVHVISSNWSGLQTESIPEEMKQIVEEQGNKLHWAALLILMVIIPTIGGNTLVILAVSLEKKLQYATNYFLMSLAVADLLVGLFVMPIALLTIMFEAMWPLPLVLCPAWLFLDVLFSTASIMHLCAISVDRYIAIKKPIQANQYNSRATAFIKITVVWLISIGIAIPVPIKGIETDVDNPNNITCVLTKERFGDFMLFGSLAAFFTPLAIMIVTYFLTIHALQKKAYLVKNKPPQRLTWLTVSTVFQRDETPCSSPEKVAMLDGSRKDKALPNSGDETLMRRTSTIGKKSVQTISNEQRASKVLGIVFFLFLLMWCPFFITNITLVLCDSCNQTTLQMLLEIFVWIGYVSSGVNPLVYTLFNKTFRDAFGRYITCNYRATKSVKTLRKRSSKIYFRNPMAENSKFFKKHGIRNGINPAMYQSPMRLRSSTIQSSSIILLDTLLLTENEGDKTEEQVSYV

As for `Clc1ccc2c(c1)C1(CN3CCC(Nc4ncccn4)CC3)CC2c2ccccc21` (centres undefined), the Binding affinity in [1] came to 49 nM; in [3] it was 2 nM; in assay [4], 351 nM. Also, in assay [2], the 50% effective dose (ED50) – broadly, the dose at which the effect has come halfway, by size or by number of responders – came to 5 mg/kg.

Take `O[C@@H](c1cccnc1)C1CCN(CC23CC(c4ccccc42)c2ccc(Cl)cc23)CC1` (some centres undefined): the Binding affinity in assay [1] worked out at 14 nM; in assay [3], 4 nM; in assay [4], 63 nM. Also, in [2], the ED50 came out at 5 mg/kg.

Regarding `CN1CCN(C(=O)C23CC(c4ccccc42)c2ccccc23)CC1`, the inhibition (usually how much of the control response was suppressed) in assay [5] turned out to be 0%. For the same compound, the ED50 in [2] was > 80 mg/kg.

`CC(C)(C)C1(O)CCN(CC23CC(c4ccccc42)c2ccc(Cl)cc23)CC1` (centres undefined): the results for the Binding affinity in assay [1], in [3] and in assay [4] were 5 nM, 1 nM and 7 nM, respectively. Besides, the ED50 in assay [2] turned out to be 0.6 mg/kg.

`C[C@@H]1CN(CCCNCC23CC(c4ccccc42)c2ccccc23)C[C@@H](C)O1`: the Binding affinity worked out at 36 nM in assay [1], 11 nM in assay [3] and 60 nM in assay [4]. Further, the ED50 in assay [2] was > 80 mg/kg.

For the compound `c1ccc2c(c1)C1CC2(CNCCCN2CCOCC2)c2ccccc21`, the Binding affinity came out at 222 nM in assay [1], 21 nM in [3] and 349 nM in assay [4]. In addition, in [2], the ED50 was > 80 mg/kg.

As for `CN1CCN(CC23CC(c4ccccc42)c2ccccc23)CC1`, the inhibition in [6] stood at 18%; in [7], 14%. For the same compound, the ED50 in assay [2] was > 80 mg/kg. For the same compound, the Binding affinity in assay [3] came out at 314 nM.

Regarding `CC[S+]([O-])c1ncccc1C1(O)CCN(CC23CC(c4ccccc42)c2ccccc23)CC1` (centres undefined), the Binding affinity in assay [1] is 42 nM; in [3], 39 nM; in assay [4] it was 13 nM. Moreover, in assay [2], the ED50 is 0.6 mg/kg.

Compound `c1ccc2c(c1)C1CC2(CN2CCC(N3CCOCC3)CC2)c2ccccc21` came in with a Binding affinity in assay [1] of 57 nM. The compound further yielded an inhibition in [8] of 17%. The ED50 in assay [2] was found to be 10 mg/kg.

Turning to `NCC12CC(c3ccccc31)c1ccccc12`, the Binding affinity result in assay [9] and in assay [10] was “inactive” throughout. In assay [2], the ED50 is > 80 mg/kg.

As to `CN1CCN(C2=Nc3cc(Cl)ccc3Nc3ccccc32)CC1` [CLOZAPINE], the median effective dose (ED50) in the assay with Rattus norvegicus was 40 mg/kg.

Consider `CCOC(OCC)C(=O)NC1CCN(CC23CC(c4ccccc42)c2ccc(Cl)cc23)CC1` (centres undefined), for which the Binding affinity in assay [1] worked out at 25 nM; in assay [3], 40 nM; in [4] it was 76 nM. Moreover, the ED50 in assay [2] turned out to be 2.5 mg/kg.

Consider `c1ccc(Cn2cncc2CCNCC23CC(c4ccccc42)c2ccccc23)cc1`, for which the Binding affinity in [1] worked out at 101 nM; in assay [3] it was 84 nM; in assay [4], 610 nM. Also, in [2], the 50% effective dose (ED50) was 80 mg/kg.

For the compound `c1cnc(NCCCNCC23CC(c4ccccc42)c2ccccc23)nc1`, the Binding affinity in [1] was 265 nM; in assay [3] it was 227 nM; in assay [4], 132 nM. In addition, the 50% effective dose (ED50) in [2] is > 80 mg/kg.
